Source: ChEMBL document CHEMBL1141504, “An efficient route into synthetically challenging bridged achiral 1,2,4,5-tetraoxanes with antimalarial activity” (Bioorg Med Chem Lett, 2008)

Assays:
Plasmodium falciparum = test: Antimalarial activity against Plasmodium falciparum 3D7; assay type: functional, organism-based
[1] = Partition coefficient, log P of the compound; assay type: physicochemical; conditions: octanol/water

| SMILES | IC50 (Plasmodium falciparum) | logP [1] |
| --- | --- | --- |
| C=C1COOC2(CCC(Cc3ccc(C(=O)OC)cc3)CC2)OOC1 | 116 nM | 4.05 |
| CCOC(=O)CC1CCC2(CC1)OOCCCOO2 | 118 nM | 2.2 |
| O=C(CC1CCC2(CC1)OOCCCOO2)N1CCOCC1 | 689 nM | 1.16 |
| C=C1COOC2(CCC(Cc3ccc(C(F)(F)F)cc3)CC2)OOC1 | 42.8 nM | 4.95 |
| Fc1ccc(CC2CCC3(CC2)OOCCCOO3)cc1 | 68.2 nM | 4.01 |
| FC(F)(F)c1ccc(CC2CCC3(CC2)OOCCCOO3)cc1 | 52.4 nM | 4.79 |
| N#Cc1ccc(CC2CCC3(CC2)OOCCCOO3)cc1 | 99.7 nM | 3.46 |
| c1ccc(CC2CCC3(CC2)OOCCCOO3)cc1 | 51.9 nM | 3.93 |
| CS(=O)(=O)c1ccc(CC2CCC3(CC2)OOCCCOO3)cc1 |  | 2.65 |
| C=C1COOC2(CCC(Cc3ccc(F)cc3)CC2)OOC1 | 43.4 nM | 4.2 |
| COC(=O)c1ccc(CC2CCC3(CC2)OOCCCOO3)cc1 | 93.5 nM | 3.75 |
| CO[C@H]1O[C@@H]2O[C@@]3(C)CC[C@H]4[C@H](C)CC[C@@H]([C@H]1C)[C@@]24OO3 [ARTEMETHER] | 3.2 nM |  |
| C[C@@H]1CC[C@H]2[C@@H](C)C(=O)O[C@@H]3O[C@@]4(C)CC[C@@H]1[C@]32OO4 [ARTEMISININ] | 9.2 nM |  |
